Assay results: publication PMC12592418, “Therapeutic potential of red bean (phaseolus vulgaris) peptides: anticancer, antihypertension, and antioxidant activities” (Scientific Reports, 2025)
No end group written: not given here.

Assays:
CaCO2 cells = experiment: MTT cell viability assay, CaCO2; format: cell-based, human; settings: synthetic peptide 100 µg/ml, 24 h, mean ± SD, n = 3
Method: (§1) CaCO2, HepG2, MCF-7, NCI-H460, SiHa, SW620, and Vero cells were obtained from the American Type Culture Collection (ATCC, Manassas, VA, USA). Cells were cultured in Dulbecco’s Modified Eagle’s Medium (DMEM; PAA, Pasching, Austria), supplemented with 10% (v/v) fetal bovine serum (Gibco, South America), 10 mM HEPES (HyClone, Utah, USA), 2 mM L-glutamine, and 100 U/mL penicillin and 100 µg/mL streptomycin. Cultures were maintained at 37 °C in a humidified atmosphere containing 5% CO₂.
(§2) The anticancer activity of protein hydrolysates and synthetic peptides against CaCO2, HepG2, MCF-7, NCI-H460, SiHa, SW620, and Vero cells were evaluated using the MTT assay. Cells were seeded into 96-well plates (Nunc™, Roskilde, Denmark) at a density of 2 × 10⁴ cells per well, and allowed to adhere. Following seeding, cells were treated with 100 µg/mL of protein hydrolysates or synthetic peptides for 24 h, while untreated cells served as controls. After 24 h, 20 µL of MTT solution (5 mg/mL; Sigma, St. Louis, MO, USA) was added to each well and incubated for an additional 3 h. The supernatant was then removed, and 100 µL of DMSO was added to each well to dissolve the formazan crystals. Optical density (OD) was measured at 540 nm using a microplate reader (Rayto RT-2100 C, China). Cell viability was calculated using the equation: (OD of treated cells/OD of untreated cells) × 100.
(§3) The IC50 values were calculated from a fitted semi-log response curve, plotting cell viability percentages against concentration. These values were determined using the AAT-Bioquest IC50 calculator (https://www.aatbio.com/tools/ic50-calculator).

MCF-7 cells = experiment: MTT cell viability assay, MCF-7; format: cell-based, human; settings: synthetic peptide 100 µg/ml, 24 h, mean ± SD
Method: as §1, §2, §3

SiHa cells = experiment: MTT cell viability assay, SiHa; format: cell-based, human; settings: synthetic peptide 100 µg/ml, 24 h, mean ± SD, n = 3
Method: as §1, §2, §3

Vero cells = experiment: MTT cell viability assay, Vero; format: cell-based, monkey; settings: synthetic peptide 100 µg/ml, 24 h, mean ± SD, n = 3
Method: as §1, §2, §3

SW620 cells = experiment: MTT cell viability assay, SW620; format: cell-based, human; settings: synthetic peptide 100 µg/ml, 24 h, mean ± SD
Method: as §1, §2, §3

[1] = system: angiotensin-converting enzyme (ACE); experiment: ACE inhibitory activity assay (HHL substrate); format: biochemical; settings: peptide 100 µg/ml, ACE 0.2 U/mL, 5 mM HHL, phosphate buffer pH 6.8, 37 °C, mean ± SD, n = 3
Method: The method utilized here is a spectrophotometric method based on the commonly used method introduced by Cushman and Cheung (1971)[45]. The 5 ul of sample was preincubated with 45 ul of ACE enzyme (0.2 U/mL) in 100 mM Phosphate buffer (pH 6.8) and incubated for 10 min at 37 °C. Enzyme activity was assayed by monitoring the hydrolysis of hippuryl-L-histidyl-L-leucine (HHL). After adding 50 µL of a 5 mM HHL substrate solution, the increase in absorbance at 405 nm was measured every minute for 15 min at 37 °C using a 96-well microplate reader. The initial velocity was determined from the linear portion of the curve, and the inhibitory activity was expressed as a percentage calculated using the following equation:
% inhibition = (1-(B-b)/(A-a)) x 100,
where A is an initial velocity of the control reaction with enzyme (control), a is an initial velocity of the control reaction without enzyme (control blank), B is an initial velocity of the enzyme reaction with sample and b is an initial velocity of the reaction with sample but without enzyme (sample blank).

HepG2 cells = experiment: MTT cell viability assay, HepG2; format: cell-based, human; settings: synthetic peptide 100 µg/ml, 24 h, mean ± SD, n = 3
Method: as §1, §2, §3

[2] = FRAP ferric ion-reducing antioxidant power assay; format: physicochemical; settings: peptide 100 µg/ml, 30 min in the dark, absorbance 593 nm, mean ± SD, n = 3
Method: The ferric ion-reducing antioxidant power assay was analyzed according to the method by Rumpf et al.[47] with minor modifications. Briefly, the FRAP reagent was prepared from 300 mM sodium acetate (pH 3.6) and 10 mM TPTZ (2,4,6-tris (2-pyridyl)-s-triazine) in 40 mM HCl and 20 mM ferric chloride at the ratio of 10:1:1, respectively. Then, a 10 µL aliquot of the sample or standard was mixed with 190 µL of the FRAP reagent before incubating in the dark for 30 min. The absorbance was measured at 593 nm using a microplate reader (Rayto RT-2100 C, China). Ascorbic acid was used as the standard. Results were expressed as micrograms of ascorbic acid equivalent per gram (µg AAE g^−1).

NCI-H460 cells = experiment: MTT cell viability assay, NCI-H460; format: cell-based, human; settings: synthetic peptide 100 µg/ml, 24 h, mean ± SD
Method: as §1, §2, §3

[3] = DPPH radical scavenging assay; format: physicochemical; settings: peptide 100 µg/ml, 0.1 mM DPPH, 30 min in the dark, room temperature, absorbance 517 nm, mean ± SD, n = 3
Method: The DPPH radical scavenging activity of the sample was evaluated following the protocol by Muangrod et al.[48] with slight modifications. Briefly, 190 µL of 0.1 mM DPPH was mixed with 10 µL of the sample or standard ascorbic acid in each well and incubated at room temperature in the dark for 30 min. The absorbance of the mixture was measured at 517 nm using a microplate reader (Rayto RT-2100 C, China). Ascorbic acid was used as the standard. Results were expressed as micrograms ascorbic acid equivalent (µg AAE g^−1).

[4] = ABTS radical scavenging assay; format: physicochemical; settings: peptide 100 µg/ml, 5 min in the dark, absorbance 750 nm, mean ± SD, n = 3
Method: Radical scavenging antioxidant activity was determined according to the ABTS radical scavenging activity following the method described by Re et al.[46] with slight modifications. Briefly, the solution of ABTS radical was prepared from the reaction between 7 mM ABTS (2,2-azino-bis (3-ethylbenzothiazoline-6-sulphonic acid) diammonium salt) and 2.45 mM ammonium persulphate. The resulting ABTS solution was diluted with distilled water to achieve an optical density of 0.7 at 750 nm. Then, a sample or standard of 10 µL was mixed with 190 µL of ABTS solution and incubated for 5 min in the dark. The absorbance was measured at 750 nm by a microplate reader (Rayto RT-2100 C, China). Ascorbic acid was used as the standard.

[5] = target: T1, angiotensin-converting enzyme (ACE) (UniProt P12822)
T1 sequence (P12822 whole entry, species assumed, looked up): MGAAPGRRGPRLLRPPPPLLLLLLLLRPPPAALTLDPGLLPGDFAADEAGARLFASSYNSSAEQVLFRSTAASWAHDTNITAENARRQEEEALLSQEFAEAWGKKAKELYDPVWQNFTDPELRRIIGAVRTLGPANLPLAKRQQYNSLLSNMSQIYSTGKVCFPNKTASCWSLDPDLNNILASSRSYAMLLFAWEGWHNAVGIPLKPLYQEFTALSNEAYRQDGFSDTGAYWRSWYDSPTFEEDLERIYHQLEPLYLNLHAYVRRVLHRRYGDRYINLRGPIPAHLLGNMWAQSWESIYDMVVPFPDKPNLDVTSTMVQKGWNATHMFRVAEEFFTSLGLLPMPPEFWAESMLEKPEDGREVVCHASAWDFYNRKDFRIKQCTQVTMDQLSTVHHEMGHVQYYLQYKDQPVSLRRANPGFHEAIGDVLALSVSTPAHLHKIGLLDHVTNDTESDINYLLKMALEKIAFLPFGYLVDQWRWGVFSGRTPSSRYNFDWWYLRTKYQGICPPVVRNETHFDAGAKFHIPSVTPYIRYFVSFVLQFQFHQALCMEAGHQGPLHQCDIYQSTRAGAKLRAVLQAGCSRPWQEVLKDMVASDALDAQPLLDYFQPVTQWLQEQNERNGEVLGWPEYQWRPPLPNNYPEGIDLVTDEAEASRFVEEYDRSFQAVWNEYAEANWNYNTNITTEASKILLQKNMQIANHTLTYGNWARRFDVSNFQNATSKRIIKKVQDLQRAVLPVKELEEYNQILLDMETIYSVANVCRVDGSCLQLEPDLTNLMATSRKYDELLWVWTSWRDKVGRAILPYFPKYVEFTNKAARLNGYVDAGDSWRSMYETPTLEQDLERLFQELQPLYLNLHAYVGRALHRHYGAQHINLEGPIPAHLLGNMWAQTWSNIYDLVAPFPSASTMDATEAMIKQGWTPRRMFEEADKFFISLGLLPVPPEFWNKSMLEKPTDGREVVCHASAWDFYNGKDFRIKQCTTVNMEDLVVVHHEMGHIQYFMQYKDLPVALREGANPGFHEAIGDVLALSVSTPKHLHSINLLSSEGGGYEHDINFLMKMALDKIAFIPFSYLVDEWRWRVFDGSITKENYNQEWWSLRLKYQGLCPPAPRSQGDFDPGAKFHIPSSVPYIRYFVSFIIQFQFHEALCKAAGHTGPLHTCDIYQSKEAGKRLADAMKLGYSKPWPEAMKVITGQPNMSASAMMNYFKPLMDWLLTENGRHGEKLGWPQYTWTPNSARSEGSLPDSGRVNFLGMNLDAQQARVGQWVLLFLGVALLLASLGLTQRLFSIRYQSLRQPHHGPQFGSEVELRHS

Row | Molecule | Inhibitory percentage, CaCO2 (CaCO2 cells) [%] | Inhibitory percentage, SiHa (SiHa cells) [%] | Inhibitory percentage, Vero (Vero cells) [%] | Inhibitory percentage, HepG2 (HepG2 cells) [%] | Antioxidant, FRAP [2] | Antioxidant, DPPH [3] | Antioxidant, ABTS [4] | Antihypertension (%): percent inhibition of ACE activity (hydrolysis of hippuryl-L-histidyl-L-leucine) at 100 µg/ml peptide [5] [%] | other results
1 | LIIPATSTKFL [RB-8] | 20.79±1.23 | – | – | – | – | – | – | – | –
2 | RGSKQRQKRQW [RB-7] | 5.73±0.02 | 8.78±0.08 | 0 | 0 | 187.50±1.88 µg ascorbic acid equivalent | 805.35±5.83 µg ascorbic acid equivalent | 507.53±13.49 µg ascorbic acid equivalent | – | Inhibitory percentage, MCF-7 (MCF-7 cells; n = 3): 0%; Inhibitory percentage, SW620 (SW620 cells; n = 3, SD): 1.47±0.01%; Antihypertension (%), percentage inhibition of ACE ([1]; SD): 60.00±1.29%; Inhibitory percentage, NCI-H460 (NCI-H460 cells; n = 3, SD): 1.74±0.01%
3 | DHPTGGL [RB-2] | 8.99±0.08 | 10.28±0.02 | 0 | 0 | 59.87±0.06 µg ascorbic acid equivalent | 239.10±0.83 µg ascorbic acid equivalent | 284.62±0.75 µg ascorbic acid equivalent | – | Inhibitory percentage, MCF-7 (MCF-7 cells; n = 3): 0%; Inhibitory percentage, SW620 (SW620 cells; n = 3): 0%; Antihypertension (%), percentage inhibition of ACE [1]: 0%; Inhibitory percentage, NCI-H460 (NCI-H460 cells; n = 3): 0%
4 | RRLRILL [RB-6] | 19.32±0.18 | 9.72±0.02 | 0 | 0 | 120.46±0.07 µg ascorbic acid equivalent | 584.66±4.15 µg ascorbic acid equivalent | 595.33±18.41 µg ascorbic acid equivalent | – | Inhibitory percentage, MCF-7 (MCF-7 cells; n = 3): 0%; Inhibitory percentage, SW620 (SW620 cells; n = 3): 0%; Antihypertension (%), percentage inhibition of ACE ([1]; SD): 46.67±0.36%; Inhibitory percentage, NCI-H460 (NCI-H460 cells; n = 3): 0%
5 | NLRKLKRL [RB-1] | 7.33±0.02 | 4.64±0.02 | 0 | 0 | 189.53±6.59 µg ascorbic acid equivalent | 373.74±12.01 µg ascorbic acid equivalent | 367.86±25.39 µg ascorbic acid equivalent | – | Inhibitory percentage, MCF-7 (MCF-7 cells; n = 3, SD): 2.10±0.00%; Inhibitory percentage, SW620 (SW620 cells; n = 3): 0%; Antihypertension (%), percentage inhibition of ACE ([1]; SD): 20.00±2.82%; Inhibitory percentage, NCI-H460 (NCI-H460 cells; n = 3, SD): 5.40±0.01%
6 | NLRKLKRL [RB-1] | – | – | – | – | – | – | – | 20 | –
7 | DHPTGGL [RB-2] | – | – | – | – | – | – | – | 0 | –
8 | SPTPPKNVPF [RB-3] | – | – | – | – | – | – | – | 20 | –
9 | GSEIRSTSDDVL [RB-4] | – | – | – | – | – | – | – | 13.3 | –
10 | APANGSAF [RB-5] | – | – | – | – | – | – | – | 43.3 | –
11 | RRLRILL [RB-6] | – | – | – | – | – | – | – | 46.7 | –
12 | RGSKQRQKRQW [RB-7] | – | – | – | – | – | – | – | 60 | –
13 | LIIPATSTKFL [RB-8] | – | – | – | – | – | – | – | 16.7 | –
